# Reference: patent publication US8168667B2 (Galapagos NV, priority 2006, dated 2012)
# Like-named read-outs stand apart in the source and are kept apart here.
# Biological target: T1, human androgen receptor (hAR) (Homo sapiens, UniProt P10275)
# T1 sequence (P10275 1-920): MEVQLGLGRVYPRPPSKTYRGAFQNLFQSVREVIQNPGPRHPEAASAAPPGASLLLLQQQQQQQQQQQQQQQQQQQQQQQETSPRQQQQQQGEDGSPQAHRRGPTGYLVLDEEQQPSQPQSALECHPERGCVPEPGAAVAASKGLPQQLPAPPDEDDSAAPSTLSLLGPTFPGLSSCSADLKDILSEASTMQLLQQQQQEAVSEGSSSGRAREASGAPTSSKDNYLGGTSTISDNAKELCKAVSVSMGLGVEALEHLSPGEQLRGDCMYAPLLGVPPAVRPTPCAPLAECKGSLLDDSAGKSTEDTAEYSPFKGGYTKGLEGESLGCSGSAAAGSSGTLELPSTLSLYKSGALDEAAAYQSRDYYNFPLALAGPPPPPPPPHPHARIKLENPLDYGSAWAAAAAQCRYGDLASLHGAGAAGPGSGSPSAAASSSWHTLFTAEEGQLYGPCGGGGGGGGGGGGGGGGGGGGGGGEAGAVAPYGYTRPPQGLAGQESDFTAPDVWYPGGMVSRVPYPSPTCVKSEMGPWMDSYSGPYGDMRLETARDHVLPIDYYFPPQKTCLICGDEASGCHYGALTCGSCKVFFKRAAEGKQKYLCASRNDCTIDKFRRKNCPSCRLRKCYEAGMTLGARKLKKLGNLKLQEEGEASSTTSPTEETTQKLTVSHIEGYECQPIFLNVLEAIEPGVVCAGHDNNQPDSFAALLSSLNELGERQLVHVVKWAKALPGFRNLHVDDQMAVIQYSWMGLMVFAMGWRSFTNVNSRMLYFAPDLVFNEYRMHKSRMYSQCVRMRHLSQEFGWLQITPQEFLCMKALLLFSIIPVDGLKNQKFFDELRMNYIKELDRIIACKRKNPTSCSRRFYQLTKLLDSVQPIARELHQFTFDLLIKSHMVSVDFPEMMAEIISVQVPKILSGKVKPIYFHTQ
# Assay: Functional response test: hAR transactivation (luciferase reporter) in HALP2 cells
# Type: cell-based
# Conditions: for EC50: agonism, HALP2 cells (HeLa, hAR + ARE-luciferase), 20 hours at 37° C.
# Summary of the method: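 HALP2 cells are HeLa cells stably transfected with CMV-driven hAR and a probasin ARE-luciferase reporter. They were seeded 24 h ahead, then exposed to compounds for 20 hours at 37° C in phenol red-free DMEM with 5% desteroided serum. Luciferase luminescence was measured after lysis; for antagonist mode, compounds were tested against increasing DHT concentrations.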
# [1] = antagonism, concentration which increases the EC50 of the DHT by a factor of 2, Schild regression, HALP2 cells
smiles,measurement,setting,value
CCCN1C(=O)N(c2ccc([N+](=O)[O-])c(C(F)(F)F)c2)C(=O)C1c1ccc(O)cc1 (centres unmarked) [Example 54],KSchild (nM) potency,[1],200 nM
"COc1ccc(C2(CF)C(=O)N(c3ccc(Cl)c(Cl)c3)C(=O)N2C)cc1 (centres unmarked) [Example 169, 1-(3,4-dichlorophenyl)-4-fluoromethyl-4-(4-methoxyphenyl)-3-methylimidazolidine-2,5-dione]",EC50,,10 nM
same,KSchild (nM) potency,[1],10 nM
"Cc1cc([N+](=O)[O-])ccc1N1C(=O)N(C)C(C)(c2ccc(O)cc2)C1=O (centres unmarked) [Example 26, 3,4-dimethyl-4-(4-hydroxyphenyl)-1-(2-methyl-4-nitro-phenyl)imidazolidine-2,5-dione]",KSchild (nM) potency,[1],20 nM
CCOC(=O)CCN1C(=O)N(c2ccc(F)c(F)c2)C(=O)C1c1ccc(O)cc1 (centres unmarked) [Example 76],EC50,,200 nM
same,KSchild (nM) potency,[1],200 nM
"CN1C(=O)N(c2ccc(Cl)c(Cl)c2Cl)C(=O)C1(C)c1ccc(O)cc1 (centres unmarked) [Example 30, 3,4-dimethyl-4-(4-hydroxyphenyl)-1-(2,3,4-trichlorophenyl)imidazolidine-2,5-dione]",EC50,,15 nM
same,KSchild (nM) potency,[1],15 nM
O=C1C(c2ccc(O)cc2)N(CCO)C(=O)N1c1ccc(Cl)c(Cl)c1 (centres unmarked) [Example 139],EC50,,44.7 nM
same,KSchild (nM) potency,[1],28.28 nM
CCCN1C(=O)N(c2ccc(Cl)c(C(F)(F)F)c2)C(=O)C1c1ccc(O)cc1 (centres unmarked) [Example 57],KSchild (nM) potency,,34.64 nM
"C#CCN1C(=S)N(c2ccc(Cl)c(Cl)c2)C(=O)C1(C)c1ccc(O)cc1 (centres unmarked) [Example 41, 1-(3,4-dichlorophenyl)-4-(4-hydroxyphenyl)-4-methyl-3-(2-propynyl)-2-thioxoimidazolidin-5-one]",EC50,,25.3 nM
same,KSchild (nM) potency,[1],15.49 nM
"Cc1cc(O)ccc1C1(C)C(=O)N(c2ccc(C#N)c(C(F)(F)F)c2)C(=O)N1C (centres unmarked) [Example 180, 4-[3,4-dimethyl-2,5-dioxo-4-(4-hydroxy-2-methylphenyl)imidazolidin-1-yl]-2-trifluoromethylbenzonitrile]",KSchild (nM) potency,,8 nM
C#CCN1C(=O)N(c2ccc([N+](=O)[O-])cc2)C(=O)C1c1ccc(O)cc1 (centres unmarked) [Example 73],KSchild (nM) potency,,13.77 nM
"COC(=O)CCN1C(=O)N(c2ccc(C#N)c(C(F)(F)F)c2)C(=O)C1(C)c1ccc(O)cc1 (centres unmarked) [Example 234, 4-[2,5-dioxo-4-(4-hydroxyphenyl)-3-[2-(methoxycarbonyl)ethyl]-4-methylimidazolidin-1-yl]-2-trifluoromethylbenzonitrile]",KSchild (nM) potency,,15 nM
O=C1C(c2ccc(O)cc2)N(Cc2ccc3c(c2)OCO3)C(=O)N1c1ccc(F)c(F)c1 (centres unmarked) [Example 100],EC50,,77.5 nM
same,KSchild (nM) potency,[1],77.46 nM
CC1(c2ccc(O)cc2)C(=O)N(c2ccc(C#N)c(C(F)(F)F)c2)C(=O)N1CCC#N (centres unmarked) [Example 149],KSchild (nM) potency,,60 nM
C#CCN1C(=O)N(c2ccc([N+](=O)[O-])c(C(F)(F)F)c2)C(=O)C1c1ccc(O)cc1 (centres unmarked) [Example 71],KSchild (nM) potency,,300 nM
CN(C)CCN1C(=O)N(c2ccc(F)c(Cl)c2)C(=O)C1c1ccc(O)cc1 (centres unmarked) [Example 119],EC50,,283 nM
same,KSchild (nM) potency,[1],282.84 nM
"O=C1C(c2ccc(O)cc2)N(Cc2ccsc2)C(=S)N1c1cccc(Cl)c1Cl (centres unmarked) [Example 17, 1-(2,3-dichlorophenyl)-4-(4-hydroxyphenyl)-3-[(thiophen-3-yl)methyl]-2-thioxo-imidazolidin-5-one]",EC50,,2000 nM
same,KSchild (nM) potency,[1],2000 nM
"C=CCOCC1(c2ccc(OC)cc2)C(=O)N(c2ccc(Cl)c(Cl)c2)C(=O)N1C (centres unmarked) [Example 171, 1-(3,4-dichlorophenyl)-4-(4-methoxyphenyl)-3-methyl-4-[(2-propenyloxy)methyl]-imidazolidine-2,5-dione]",EC50,,600 nM
"CC1(c2ccc(O)cc2)C(=O)N(c2ccc(C#N)c(C(F)(F)F)c2)C(=O)N1CC#CCO (centres unmarked) [Example 243, 4-[2,5-dioxo-3-(4-hydroxy-2-butynyl)-4-(4-hydroxyphenyl)-4-methylimidazolidinyl-1-yl]-2-trifluoromethylbenzonitrile]",KSchild (nM) potency,,4.56 nM
CCOCCCN1C(=O)N(c2ccc(Cl)c(Cl)c2)C(=O)C1c1ccc(O)cc1 (centres unmarked) [Example 84],EC50,,24.5 nM
same,KSchild (nM) potency,[1],17.32 nM
"CN1C(=O)N(c2ccc(C#N)c(C(F)(F)F)c2)C(=O)[C@@]1(CF)c1ccc(O)cc1 [Example 177.2, (R)-4-[4-fluoromethyl-4-(4-hydroxyphenyl)-3-methyl-2,5-dioxoimidazolidin-1-yl]-2-trifluoromethylbenzonitrile]",KSchild (nM) potency,,40.4 nM
"CN1C(=O)N(c2ccc(C#N)c(O)c2)C(=O)[C@@]1(C)c1ccc(O)cc1 [Example 156.3, (R)-4-[3,4-dimethyl-2,5-dioxo-4-(4-hydroxyphenyl)imidazolidin-1-yl]-2-hydroxybenzonitrile]",KSchild (nM) potency,,30 nM
CN1C(=O)N(c2ccc([N+](=O)[O-])c(C(F)(F)F)c2)C(=O)C1c1ccc(O)cc1 (centres unmarked) [Example 45],KSchild (nM) potency,,100 nM
"COc1ccc(C2(C)C(=O)N(c3ccc(C#N)c(C(F)(F)F)c3)C(=O)N2C)cc1F (centres unmarked) [Example 162, 4-[3,4-dimethyl-2,5-dioxo-4-(3-fluoro-4-methoxyphenyl)imidazolidin-1-yl]-2-trifluoromethylbenzonitrile]",KSchild (nM) potency,,40 nM
N#CCN1C(=O)N(c2ccc(F)c(F)c2)C(=O)C1c1ccc(O)cc1 (centres unmarked) [Example 92],EC50,,1500 nM
same,KSchild (nM) potency,[1],1500 nM
"CCC(=O)CN1C(=O)N(c2ccc(C#N)c(C(F)(F)F)c2)C(=O)C1(C)c1ccc(O)cc1 (centres unmarked) [Example 233, 4-[2,5-dioxo-4-(4-hydroxyphenyl)-4-methyl-3-(2-oxobutyl)imidazolidin-1-yl]-2-trifluoromethylbenzonitrile]",KSchild (nM) potency,,2.45 nM
"O=C1C(c2ccc(O)cc2)N(Cc2ccsc2)C(=S)N1c1ccc(Cl)cc1Cl (centres unmarked) [Example 18, 1-(2,4-dichlorophenyl)-4-(4-hydroxyphenyl)-3-[(thiophen-3-yl)methyl]-2-thioxo-imidazolidin-5-one]",EC50,,5660 nM
same,KSchild (nM) potency,[1],5656.85 nM
C#CCN1C(=O)N(c2ccc(F)c(F)c2)C(=O)C1c1ccc(O)cc1 (centres unmarked) [Example 67],EC50,,49 nM
same,KSchild (nM) potency,[1],48.99 nM
C#CCN1C(=O)N(c2ccc(F)c(Cl)c2)C(=O)C1c1ccc(O)cc1 (centres unmarked) [Example 70],EC50,,20 nM
same,KSchild (nM) potency,[1],20 nM
CCOC(=O)CCN1C(=O)N(c2ccc([N+](=O)[O-])cc2)C(=O)C1c1ccc(O)cc1 (centres unmarked) [Example 81],KSchild (nM) potency,,16.38 nM
CCCN1C(=O)N(c2ccc(F)c(F)c2)C(=O)C1c1ccc(O)cc1 (centres unmarked) [Example 56],EC50,,34.6 nM
same,KSchild (nM) potency,[1],34.64 nM
"CC1(c2ccc(O)cc2)C(=O)N(c2ccc(C#N)c(C(F)(F)F)c2)C(=O)N1CC(N)=O (centres unmarked) [Example 231, 4-[3-[(aminocarbonyl)methyl]-2,5-dioxo-4-(4-hydroxyphenyl)-4-methylimidazolidin-1-yl]-2-trifluoromethylbenzonitrile]",KSchild (nM) potency,,60 nM
"CC1(c2ccc(O)cc2)C(=O)N(c2ccc(Cl)c(Cl)c2)C(=S)N1CCC#N (centres unmarked) [Example 42, 3-[1-(3,4-dichlorophenyl)-4-(4-hydroxyphenyl)-4-methyl-5-oxo-2-thioxoimidazolidin-3-yl]-propionitrile]",EC50,,8 nM
same,KSchild (nM) potency,[1],4.9 nM
N#CCN1C(=O)N(c2ccc(F)c(C(F)(F)F)c2)C(=O)C1c1ccc(O)cc1 (centres unmarked) [Example 94],EC50,,300 nM
same,KSchild (nM) potency,[1],300 nM
CN(C)CCN1C(=O)N(c2ccc(Cl)c(C(F)(F)F)c2)C(=O)C1c1ccc(O)cc1 (centres unmarked) [Example 117],EC50,,77.5 nM
same,KSchild (nM) potency,[1],77.46 nM
"CC1(c2ccc(O)cc2)C(=O)N(c2ccc(C#N)c(C(F)(F)F)c2)C(=O)N1CC#N (centres unmarked) [Example 237, 4-[3-(cyanomethyl)-2,5-dioxo-4-(4-hydroxyphenyl)-4-methylimidazolidin-1-yl]-2-trifluoromethylbenzonitrile]",KSchild (nM) potency,,8 nM
N#CCCN1C(=O)N(c2ccc(Cl)c(C(F)(F)F)c2)C(=O)C1c1ccc(O)cc1 (centres unmarked) [Example 125],KSchild (nM) potency,,30 nM
CCOC(=O)CCN1C(=O)N(c2ccc(Cl)c(C(F)(F)F)c2)C(=O)C1c1ccc(O)cc1 (centres unmarked) [Example 77],EC50,,122 nM
same,KSchild (nM) potency,[1],94.87 nM
"C=CCN1C(=O)N(c2ccc(C#N)c(C(F)(F)F)c2)C(=O)C1(C)c1ccc(O)cc1 (centres unmarked) [Example 23, 4-[2,5-dioxo-4-(4-hydroxyphenyl)-4-methyl-3-(2-propenyl)imidazolidin-1-yl]-2-trifluoromethylbenzonitrile]",KSchild (nM) potency,[1],2 nM
